Assay results: US20020004611A1 (Cargill, Incorporated, priority 1997, published 2002)

Experiments:
Format in all cases: physicochemical
[1] = Single stage extraction of lactic acid from fermentation broth with different solvents (Example 20); conditions: broth pH 3.87
From the text: Fermentation broth with a final pH value of 3.87 and a total lactate material concentration of 79 g/liter as determined by high performance liquid chromatography was obtained. A number of different solvents were contacted with the broth to determine the lactic acid recovery in a single stage. […] For the 100% Alamine 336 solvent, two organic phases were isolated and titrated and both values are reported. The partition coefficient is not reported for this system.

[2] = Three successive contacts of fermentation broth with fresh extracting solvent (Example 21); conditions: 89 wt % Alamine 336, 9 wt % dodecanol, 2 wt % IsoPar K; for Lactic Acid Aqueous Phase wt % / Lactic Acid Organic Phase wt %: aqueous to organic phase ratio 3.0
From the text: Fermentation broth with a final pH of 3.87 and a total lactate material concentration of 79 g/liter as determined by high performance liquid chromatography was obtained.

[3] = Back extraction of lactic acid from Alamine 336 into second polar liquid phase (Example 4)
Procedure: Two solutions of lactic acid and […] 336 were made by contacting the […] […] The samples were held at the specified temperature in an oil bath for about 45 to 60 minutes with regular mixing. […] A similar procedure was used for contacting […] […] Phases were allowed to settle at specified temperature and then quickly separated by piping out the bottom phase. […] 336 concentrations. In all cases, the […] 336 phase was the least dense phase or the top phase. […] 336 concentrations in the top and bottom phases. […] In some of the solvents, there was a significant amount of […] 336 co-extracted into the polar liquid phase. Dimethyl sulfoxide looks like a favorable solvent for this type of process because of the good selectivity for the lactic acid over the […] 336.

[4] = Chiral purity of lactic acid after heating during triethylamine evaporation (Example 5)
Procedure: The back extraction was scaled up to allow the distillation experiment. […] The triethylamine evaporated initially at 23° C. and 10 mm Hg. […] About 69% of the triethylamine evaporated out. […].
The remaining mixture was heated to 110° C. where it was held for 80 minutes. At this point, 96% of the triethylamine was evaporated.

[5] = solvent 30 wt % TOPO, 70 wt % MIBK
[6] = solvent 82 wt % A336, 10 wt % OctOH, 8 wt % IPK
[7] = solvent 89 wt % A336, 9 wt % DodecOH, 2 wt % IPK

- Lactic Acid Aqueous Phase wt % [1, 5]: 2.24 wt %
- Lactic Acid Organic Phase wt % [1, 5]: 2.36 wt %
- Partition Coefficient [1, 5]: 1.05
- Lactic Acid Aqueous Phase wt % [1, 6]: 1.52 wt %
- Lactic Acid Organic Phase wt % [1, 6]: 5.09 wt %
- Partition Coefficient [1, 6]: 3.35
- Lactic Acid Aqueous Phase wt % [1, 7]: 4.76 wt %
- Lactic Acid Organic Phase wt % [1, 7]: 1.84 wt %
- Partition Coefficient [1, 7]: 2.6
- Lactic Acid Aqueous Phase wt % ([1]; solvent 100% A336): 2.34 wt %
- Partition Coefficient ([2]; Stage 1): 2.5
- Lactic Acid Aqueous Phase wt % ([2]; Stage 1): 1.55 wt %
- Lactic Acid Organic Phase wt % ([2]; Stage 1): 3.9 wt %
- Partition Coefficient ([2]; Stage 2): 1.25
- Lactic Acid Aqueous Phase wt % ([2]; Stage 2): 1.09 wt %
- Lactic Acid Organic Phase wt % ([2]; Stage 2): 1.36 wt %
- Partition Coefficient ([2]; Stage 3): 0.84
- Lactic Acid Aqueous Phase wt % ([2]; Stage 3): 0.88 wt %
- Lactic Acid Organic Phase wt % ([2]; Stage 3): 0.74 wt %
- Partition Coefficient (lactic acid, Alamine 336 top phase / bottom polar liquid phase) ([3]; solvent Lactide, 140 °C): 0.82
- Lactic acid Wt % ([3]; solvent Lactide, 140 °C, Bottom phase, calculated from overall mass balance): 2.98^2 Wt %
- Lactic acid Wt % ([3]; solvent Lactide, 140 °C, Top (Alamine 336) phase): 2.44 Wt %
- Partition Coefficient (lactic acid, Alamine 336 top phase / bottom polar liquid phase) ([3]; solvent NMP, 90 °C): 0.29
- Lactic acid Wt % ([3]; solvent NMP, 90 °C, Bottom (polar liquid) phase): 1.13 Wt %
- Lactic acid Wt % ([3]; solvent NMP, 90 °C, Top (Alamine 336) phase): 0.33 Wt %
- Partition Coefficient (lactic acid, Alamine 336 top phase / bottom polar liquid phase) ([3]; solvent NMP, 110 °C): 0.22
- Lactic acid Wt % ([3]; solvent NMP, 110 °C, Bottom (polar liquid) phase): 12.2 Wt %
- Lactic acid Wt % ([3]; solvent NMP, 110 °C, Top (Alamine 336) phase): 2.73 Wt %
- chiral purity after heating ([4]; 21.5 wt % lactic acid in triethylamine and N-methyl-2-pyrrolidinone, 55° C. 10 mm Hg two hours, then 110° C. 80 minutes): not significantly changed
- chiral purity of the lactic acid after heating ([4]; 43 wt % lactic acid in triethylamine, 10 mm Hg, heated to 120° C., held 90 minutes): not changed significantly
SMILES: CC(O)C(=O)O (stereo not drawn) [lactic acid, 2-hydroxypropionic acid]
